Measurements published in patent publication US20240156755A1, “USE OF RIP1 INHIBITOR OR MLKL INHIBITOR FOR TREATING OR PREVENTING HEREDITARY RETINAL DYSTROPHY” (TZU CHI UNIVERSITY, priority 2022, published 2024).
Entries after “also recorded” stand apart in the source; their conditions may differ.

How the values were obtained:
[1] = tested on: POMGNT1 knockout human RPE cells; test: Trans-epithelial electrical resistance (TEER) of RPE monolayers; format: cell-based; conditions: transwell culture
Description: The RPE is a polarized epithelial monolayer which lies between the photoreceptors and the choroid. The RPE is essential to keep neural retinal healthy by maintenance of many important functions including light absorption, trans-epithelial transport, phagocytosis, and secretion of growth factors. The feature of healthy RPE is the generation of a trans-epithelial electrical resistance by specific tight junctions between epithelial cells. Trans-epithelial electrical resistance (TEER) was determined in RPE monolayers in WT and POMGNT1 knockout cells using Millicell-ERS Voltmeter (MERS00002, EMD Millipore) with transwell culture to evaluate the cell monolayer integrity.
POMGNT1 knockout human RPE cell were treated with RIPA-56, a potent, selective RIP1 inhibitor or with GW806742X, a MLKL inhibitor.

Pomgnt1^L120R/L120R mice = test: Scotopic ERG after treatment of Pomgnt1^L120R/L120R mice; format: in vivo; conditions: 6-month-old mice, 3 months after injection; compared with AAV8-GFP treated group; RIPA-56 10 mg/Kg twice a week IP; AAV 1 μL 1×10^9 vg subretinal
Description: To evaluate retinal function in vivo, ERG was recorded with various light stimulus intensities under dark-adapted scotopic condition. Scotopic ERG records rod photoreceptor (a-wave), signal from rod to rod bipolar cell (b-wave), and retinal pigment epithelium (c-wave). […] This reduction in ERG a-, b, and c-wave amplitude indicated the function of rod photoreceptor, rod bipolar cells post-synaptic signal and RPE were greatly affected in Pomgnt1^L120R/L120R mouse retina.

[2] = tested on: POMGNT1 knockout human RPE cells; test: Immunoblotting of autophagy-related proteins and necroptosis markers; format: cell-based

Row | Structure (SMILES) | TEER level [1] | scotopic ERG a-, b-, and c-wave amplitudes (Pomgnt1^L120R/L120R mice) | expression of beclin1, p62 and LC3b [2] | phospho-RIP3 and phosphor-MLKL [2]
1 | CN(c1ccc(NC(=O)Nc2ccc(OC(F)(F)F)cc2)cc1)c1ccnc(Nc2cccc(S(N)(=O)=O)c2)n1 [GW806742X] | significant improvement |  |  | 
2 | CCC(C)(C)C(=O)N(O)Cc1ccccc1 [RIPA-56] | significant improvement; also recorded: improve | significantly improved | significantly decrease | inhibit
